From patent US8937089B2, “Synergistic mixtures of anthranilamide invertebrate pest control agents” (priority 2004, dated 2015) come the findings set out here.

One may read the mortality as the percentage killed.

What all share (assay): whole plant or invertebrate
What all share (assay type): in vivo

Assay [1] has as its system potato leafhopper (Empoasca fabae Harris). Particulars: Empoasca fabae, alone, read-out: % mortality (obs); for mortality at 10 ppm: rate 10 ppm; for mortality at 100 ppm: rate 100 ppm; for mortality at 1000 ppm: rate 1000 ppm. As to the method: (§1) Test compounds were formulated using a solution containing 10% acetone, 90% water and 300 ppm X-77® Spreader Lo-Foam Formula non-ionic surfactant containing alkylarylpolyoxyethylene, free fatty acids, glycols and 2-propanol (Loveland Industries, Inc.) to provide the desired concentration in ppm. Formulated test solutions were then applied in 1 mL volumes through a SUJ2 atomizer nozzle with 1/8 JJ custom body (Spraying Systems Co.) positioned 1.27 cm (0.5 inches) above the top of each test unit.
[…] White sand was added to the top of the soil, and one of the primary leaves was excised prior to application. Test compounds were formulated and sprayed with 3 replications as described for Test A. After spraying, the test units were allowed to dry for 1 hour before they were infested with 5 potato leafhoppers (18- to 21-day-old adults). A black, screened cap was placed on the top of each container. The test units were held for 6 days in a growth chamber at 19-21° C. and 50-70% relative humidity.

Assay [2] has as its system cotton melon aphid (Aphis gossypii Glover). The conditions noted are these: Aphis gossypii, read-out: % mortality (obs); for mortality at 10 ppm: rate 10 ppm; for mortality at 100 ppm: rate 100 ppm; for mortality at 1000 ppm: rate 1000 ppm. The method, then: as §1
For evaluating control of cotton melon aphid (Aphis gossypii Glover) through contact and/or systemic means, each test unit consisted of a small open container with a 6- to 7-day-old cotton plant inside. This was pre-infested by placing on a leaf of the test plant 30 to 40 aphids on a piece of leaf excised from a culture plant (cut-leaf method). The larvae moved onto the test plant as the leaf piece desiccated. After pre-infestation, the soil of the test unit was covered with a layer of sand.
Test compounds were formulated and sprayed as described for Test A. The applications were replicated three times. After spraying of the formulated test compounds, each test unit was allowed to dry for 1 hour and then a black, screened cap was placed on top. The test units were held for 6 days in a growth chamber at 19-21° C. and 50-70% relative humidity.

Assay [3] has as its system green peach aphid (Myzus persicae Sulzer). The conditions noted are these: Myzus persicae, in Raphanus sativus, Green Peach Aphid, read-out: % mortality (obs); for mortality at 10 ppm: rate 10 ppm; for mortality at 100 ppm: rate 100 ppm; for mortality at 1000 ppm: rate 1000 ppm. The method, then:
as §1
For evaluating control of green peach aphid (Myzus persicae Sulzer) through contact and/or systemic means, each test unit consisted of a small open container with a 12- to 15-day-old radish plant inside. This was pre-infested by placing on a leaf of the test plant 30 to 40 aphids on a piece of leaf excised from a culture plant (cut-leaf method). The larvae moved onto the test plant as the leaf piece desiccated. After pre-infestation, the soil of the test unit was covered with a layer of sand.
Test compounds were formulated and sprayed as described in Test A, replicated three times. After spraying of the formulated test compound, each test unit was allowed to dry for 1 hour and then a black, screened cap was placed on top. The test units were held for 6 days in a growth chamber at 19-21° C. and 50-70% relative humidity.

Assay [4] concerns western flower thrip (Frankliniella occidentalis Pergande). Particulars: Frankliniella occidentalis, 168 h, single compound, spray, 7 days, read-out: % mortality (obs); for mortality at 10 ppm: rate 10 ppm; for mortality at 100 ppm: rate 100 ppm; for mortality at 1000 ppm: rate 1000 ppm. As to the method: as §1
For evaluating control of the western flower thrip (Frankliniella occidentalis Pergande) through contact and/or systemic means, each test unit consisted of a small open container with a 5- to 7-day-old bean (var. Soleil) plant inside.
Test solutions were formulated and sprayed with 3 replications as described for Test A. After spraying, the test units were allowed to dry for 1 hour, 22 to 27 adult thrips were added to each unit and then a black, screened cap was placed on top. The test units were held for 7 days at 25° C. and 45-55% relative humidity.

For assay [5], the system named is silverleaf whitefly (Bemisia argentifolii Bellows and Perring). The conditions noted are these: Bemisia argentifolii, in Gossypium hirsutum, Table 2B, read-out: % mortality (obs); for mortality at 1000 ppm: rate 1000 ppm; for mortality at 10 ppm: rate 10 ppm.
Source text: For evaluating control of silverleaf whitefly (Bemisia argentifolii Bellows and Perring) through contact and/or systemic means, each test unit consisted of a small open container with a 12- to 14-day-old cotton plant inside. This was pre-infested by placing test units into cages infested with adult whiteflies so that oviposition on the cotton leaves could occur. The adults were removed from the plants with an air-blast nozzle, and the test units were capped. The test units were then stored 2 to 3 days before spraying.
as §1
The results for all experimental compositions in this test were replicated three times. After spraying of the formulated test composition, each test unit was allowed to dry for 1 hour and the cap removed. The test units were held for 13 days in a growth chamber at 28° C. and 50-70% relative humidity.

The test system of assay [6] is corn planthopper (Peregrines maidis). The conditions noted are these: Corn Plant Hopper, read-out: % mortality (obs); for mortality at 0.1 ppm: rate 0.1 ppm; for mortality at 0.2 ppm: rate 0.2 ppm; for mortality at 0.3 ppm: rate 0.3 ppm; for mortality at 1000 ppm: rate 1000 ppm. The method, then:
as §1
For evaluating control of corn planthopper (Peregrines maidis) through contact and/or systemic means, each test unit consisted of a small open cylindrical container with a 3- to 4-day-old corn (maize) plant (spike) inside. White sand was added to the top of the soil prior to application. Test compounds were formulated and sprayed with 3 replications as described for Test A. After spraying, the test units were allowed to dry for 1 hour before they were post-infested with 10 to 20 corn planthoppers (18- to 20-day-old nymphs) by sprinkling them onto the sand with a salt shaker. A black, screened cap was placed on the top of each container. The test units were held for 6 days in a growth chamber at 19-21° C. and 50-70% relative humidity.

For `CCOP(=S)(OCC)Oc1nc(Cl)c(Cl)cc1Cl` [Chlorpyrifos], in assay [1], the mortality at 10 ppm stood at 13%, the mortality at 100 ppm came out at 0% and the mortality at 1000 ppm came out at 7%. Besides, in assay [2] (rate 1 ppm), the mortality at 1 ppm is 26%. Also, the mortality at 5 ppm in assay [2] (rate 5 ppm) amounted to 14%. Moreover, the mortality at 50 ppm in assay [2] (rate 50 ppm) amounted to 13%. Moreover, in assay [3], the mortality at 10 ppm is 5%, the mortality at 100 ppm worked out at 18% and the mortality at 1000 ppm was determined as 9%. In assay [4], the mortality at 10 ppm was determined as 20%, the mortality at 100 ppm was determined as 10% and the mortality at 1000 ppm stood at 10%. The mortality at 500 ppm in assay [5] (rate 500 ppm) worked out at 0%. In assay [5], the mortality at 1000 ppm amounted to 0%. In addition, in assay [5] (rate 2000 ppm), the mortality at 2000 ppm worked out at 0%. Further, in assay [6], the mortality at 0.1 ppm is 46%, the mortality at 0.2 ppm was determined as 24% and the mortality at 0.3 ppm turned out to be 19%.

On to `Nc1nc(N)nc(NC2CC2)n1` [Cyromazine], for which the mortality at 10 ppm in assay [1] was 7%; in assay [2], 23%; in assay [3], 24%; in assay [5] it was 1%. Moreover, the mortality at 100 ppm in assay [1] was 0%; in assay [2], 34%; in assay [3], 33%; in assay [5] (rate 100 ppm) it was 2%. Also, the mortality at 1000 ppm in assay [1] came out at 0%; in assay [2], 28%; in assay [3], 65%; in assay [4], 70%; in assay [5] it was 2%; in assay [6], 8%. In addition, the figures for the mortality at 200 ppm in assay [4] (rate 200 ppm) and in assay [6] (rate 200 ppm) were 70% and 4%, respectively. For the same compound, the mortality at 500 ppm in assay [4] (rate 500 ppm) worked out at 80%; in assay [6] (rate 500 ppm), 8%.

For `CC1(C)[C@H](C(=O)O[C@H](C#N)c2cccc(Oc3ccccc3)c2)[C@@H]1C=C(Br)Br` [Deltamethrin], the results for the mortality at 0.1 ppm in assay [1] (rate 0.1 ppm), in assay [2] (rate 0.1 ppm) and in assay [6] were 7%, 52% and 11%, respectively. In addition, the mortality at 0.2 ppm in assay [1] (rate 0.2 ppm) stood at 7%; in assay [2] (rate 0.2 ppm), 39%; in assay [6] it was 14%. In assay [1] (rate 1 ppm), the mortality at 1 ppm was found to be 60%. Also, the mortality at 0.3 ppm in assay [2] (rate 0.3 ppm) was found to be 88%; in assay [6], 7%. Moreover, the mortality at 250 ppm in assay [3] (rate 250 ppm) is 9%. In addition, the mortality at 300 ppm in assay [3] (rate 300 ppm) is 3%. Also, the mortality at 1000 ppm in assay [3] came out at 9%; in assay [4] it was 70%. In assay [4], the mortality at 10 ppm stood at 70%. Also, in assay [4] (rate 3000 ppm), the mortality at 3000 ppm came to 50%. Moreover, in assay [5] (rate 30 ppm), the mortality at 30 ppm amounted to 2%. The mortality at 40 ppm in assay [5] (rate 40 ppm) came out at 0%. For the same compound, the mortality at 50 ppm in assay [5] (rate 50 ppm) was determined as 1%.

Turning to `CCOC(=O)NCCOc1ccc(Oc2ccccc2)cc1` [Fenoxycarb], the mortality at 10 ppm in assay [1] was determined as 0%; in assay [2], 16%; in assay [3], 17%; in assay [4] it was 40%; in assay [5], 0%; in assay [6] (rate 10 ppm) it was 8%. In addition, the mortality at 100 ppm in assay [1] stood at 20%; in assay [2], 23%; in assay [3], 16%; in assay [4] it was 70%; in assay [6] (rate 100 ppm) it was 2%. The mortality at 1000 ppm in assay [1] came to 0%; in assay [2], 34%; in assay [3], 18%; in assay [4], 60%; in assay [6], 5%. Also, the mortality at 2 ppm in assay [5] (rate 2 ppm) turned out to be 0%. Besides, in assay [5] (rate 20 ppm), the mortality at 20 ppm came to 21%.
